Laboratory results: paper PMC6001238, “Iterative Chemical Engineering of Vancomycin Leads to Novel Vancomycin Analogs With a High in Vitro Therapeutic Index” (Frontiers in Microbiology, 2018)
Values after ≈ are worked out from the molar mass of the structure shown.

Key:
E. faecalis VSE 1 = assay: MIC, broth microdilution, vancomycin-sensitive E. faecalis (VSE 1); assay type: cell-based, Enterococcus faecalis; details: for MIC: Enterococcus faecalis VSE 1 (vancomycin-sensitive), read-out: MIC; for MIC-fold improvement vs. vancomycin: VSE 1, ratio of MIC of vancomycin and MIC of analogue
Procedure, shortened: (§1)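 MIC values come from broth microdilution run to CLSI susceptibility-testing standards. Ultrapure water and uninoculated broth served as controls. In one series, vancomycin at a final 10 μM was co-dosed with the analogue or comparator antibiotic.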

E. faecalis VRE 6 = assay: MIC, broth microdilution, vancomycin-resistant E. faecalis VRE 6 (VanA); assay type: cell-based, Enterococcus faecalis; details: for MIC: Enterococcus faecalis VRE 6 (vancomycin-resistant), read-out: MIC; for MIC-fold improvement vs. vancomycin: VRE 6, ratio of MIC of vancomycin and MIC of analogue
Procedure, shortened: as §1

E. faecalis VRE 53 = assay: MIC, broth microdilution, vancomycin-resistant E. faecalis VRE 53 (VanA); assay type: cell-based, Enterococcus faecalis; details: for MIC: Enterococcus faecalis VRE 53 (vancomycin-resistant), read-out: MIC; for MIC-fold improvement vs. vancomycin: VRE 53, ratio of MIC of vancomycin and MIC of analogue
Procedure, shortened: as §1

E. faecalis VRE 29 = assay: MIC, broth microdilution, vancomycin-resistant E. faecalis VRE 29 (VanA); assay type: cell-based, Enterococcus faecalis; details: for MIC: Enterococcus faecalis VRE 29 (vancomycin-resistant), read-out: MIC; for MIC-fold improvement vs. vancomycin: VRE 29, ratio of MIC of vancomycin and MIC of analogue
Procedure, shortened: as §1

E. faecalis VRE 37 = assay: MIC, broth microdilution, vancomycin-resistant E. faecalis VRE 37 (VanA); assay type: cell-based, Enterococcus faecalis; details: for MIC: Enterococcus faecalis VRE 37 (vancomycin-resistant), read-out: MIC
Procedure, shortened: as §1

[1] = test system: Murine leukemia (L1210) cells; assay: Cytostatic activity, L1210 cell proliferation; assay type: cell-based; details: mean ± SD of three experiments; highest concentration tested 250 µM; 2 days; read-out: Toxicity (IC50) L1210
Procedure, shortened: (§2)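 Coulter counter cell counts after 37°C culture with compound; IC50 = concentration giving 50% growth inhibition vs negative control. Incubation: L1210 2 d, CEM 3 d, HeLa 4 d. Suspension density before mixing with an equal volume of dilution: 300,000–500,000 cells/mL.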

[2] = test system: human T-lymphocyte (CEM) cells; assay: Cytostatic activity, CEM cell proliferation; assay type: cell-based; details: mean ± SD of three experiments; highest concentration tested 250 µM; 3 days; read-out: Toxicity (IC50) CEM
Procedure, shortened: as §2

[3] = test system: human cervix carcinoma (HeLa) cells; assay: Cytostatic activity, HeLa cell proliferation; assay type: cell-based; details: mean ± SD of three experiments; highest concentration tested 250 µM; 4 days; read-out: Toxicity (IC50) HeLa
Procedure, shortened: as §2

[4] = test system: L1210, CEM and HeLa cell lines; assay: Cytostatic activity, average or summary over L1210, CEM and HeLa; assay type: cell-based; details: average of L1210, CEM and HeLa; read-out: Toxicity (IC50) Average
Procedure, shortened: as §2

[5] = test system: S. aureus VSSA (ATCC 6538); assay: MIC, broth microdilution, vancomycin-sensitive S. aureus (VSSA/MSSA, ATCC 6538); assay type: cell-based, Staphylococcus aureus; details: for MIC: Staphylococcus aureus VSSA, read-out: MIC; for MIC-fold improvement vs. vancomycin: VSSA, ratio of MIC of vancomycin and MIC of analogue
Procedure, shortened: as §1

S. aureus VISA/HIP5827 = assay: MIC, broth microdilution, vancomycin-intermediate S. aureus VISA HIP5827; assay type: cell-based, Staphylococcus aureus; details: for MIC: Staphylococcus aureus VISA/HIP5827, read-out: MIC; for MIC-fold improvement vs. vancomycin: VISA/HIP5827, ratio of MIC of vancomycin and MIC of analogue
Procedure, shortened: as §1

S. aureus VRSA = assay: MIC, broth microdilution, vancomycin-resistant S. aureus (VRSA); assay type: cell-based, Staphylococcus aureus; details: for MIC: Staphylococcus aureus VRSA, read-out: MIC; for MIC-fold improvement vs. vancomycin: VRSA, ratio of MIC of vancomycin and MIC of analogue
Procedure, shortened: as §1

MRSA KS2 = assay: MIC, broth microdilution, MRSA KS2; assay type: cell-based, Staphylococcus aureus; details: for MIC-fold improvement vs. vancomycin: MRSA KS2, ratio of MIC of vancomycin and MIC of analogue; for MIC: Staphylococcus aureus MRSA KS2, read-out: MIC
Procedure, shortened: as §1

MRSA KS6 = assay: MIC, broth microdilution, MRSA KS6; assay type: cell-based, Staphylococcus aureus; details: for MIC-fold improvement vs. vancomycin: MRSA KS6, ratio of MIC of vancomycin and MIC of analogue; for MIC: Staphylococcus aureus MRSA KS6, read-out: MIC
Procedure, shortened: as §1

MRSA KS89 = assay: MIC, broth microdilution, MRSA KS89; assay type: cell-based, Staphylococcus aureus; details: for MIC-fold improvement vs. vancomycin: MRSA KS8, ratio of MIC of vancomycin and MIC of analogue; for MIC: Staphylococcus aureus MRSA KS8, read-out: MIC
Procedure, shortened: as §1

MRSA KS1 = assay: MIC, broth microdilution, MRSA KS1; assay type: cell-based, Staphylococcus aureus; details: for MIC-fold improvement vs. vancomycin: MRSA KS1, ratio of MIC of vancomycin and MIC of analogue; for MIC: Staphylococcus aureus MRSA KS1, read-out: MIC
Procedure, shortened: as §1

SMILES | MIC (E. faecalis VSE 1) | MIC-fold improvement vs. vancomycin (E. faecalis VSE 1) | MIC (E. faecalis VRE 6) | MIC-fold improvement vs. vancomycin (E. faecalis VRE 6) | MIC (E. faecalis VRE 53) | MIC-fold improvement vs. vancomycin (E. faecalis VRE 53) | MIC (E. faecalis VRE 29) | MIC-fold improvement vs. vancomycin (E. faecalis VRE 29) | MIC (E. faecalis VRE 37) | IC50 [1] | IC50 [2] | IC50 [3] | IC50 [4] | MIC [5] | MIC-fold improvement vs. vancomycin [5] | MIC (S. aureus VISA/HIP5827) | MIC-fold improvement vs. vancomycin (S. aureus VISA/HIP5827) | MIC (S. aureus VRSA) | MIC-fold improvement vs. vancomycin (S. aureus VRSA) | MIC-fold improvement vs. vancomycin (MRSA KS2) | also measured
CNC(CC(C)C)C(=O)NC1C(=O)NC(CC(N)=O)C(=O)NC2C(=O)NC3C(=O)NC(C(=O)NC(C(=O)NCCNC(=O)C=Cc4ccc(NS(=O)(=O)c5ccc(Cl)cc5)cc4)c4cc(O)cc(O)c4-c4cc3ccc4O)C(O)c3ccc(c(Cl)c3)Oc3cc2cc(c3OC2OC(CO)C(O)C(O)C2OC2CC(C)(N)C(O)C(C)O2)Oc2ccc(cc2Cl)C1O (stereo not shown) [Vanc-62] | 0.39 µM (≈ 0.706 µg/mL) | 4 | 3.13 µM (≈ 5.67 µg/mL) | 64 | 25 µM (≈ 45.3 µg/mL) | 16 | 6.25 µM (≈ 11.3 µg/mL) | 64 | 12.5 µM (≈ 22.6 µg/mL) | > 250 µM | ≥ 250 µM | 86 ± 42 µM | 195 µM | 0.39 µM (≈ 0.706 µg/mL) | 2 | 1.56 µM (≈ 2.83 µg/mL) | 4 | 0.78 µM (≈ 1.41 µg/mL) | 128 | 4 | MIC (MRSA KS2): 0.20 µM (≈ 0.362 µg/mL); MIC-fold improvement vs. vancomycin (MRSA KS6): 2; MIC (MRSA KS6): 0.39 µM (≈ 0.706 µg/mL); MIC-fold improvement vs. vancomycin (MRSA KS89): 2; MIC (MRSA KS89): 0.39 µM (≈ 0.706 µg/mL); MIC-fold improvement vs. vancomycin (MRSA KS1): 4; MIC (MRSA KS1): 0.20 µM (≈ 0.362 µg/mL)
CNC(CC(C)C)C(=O)NC1C(=O)NC(CC(N)=O)C(=O)NC2C(=O)NC3C(=O)NC(C(=O)NC(C(=O)NCCCNC(=O)c4ccc5cc(NS(=O)(=O)c6ccccc6)ccc5c4)c4cc(O)cc(O)c4-c4cc3ccc4O)C(O)c3ccc(c(Cl)c3)Oc3cc2cc(c3OC2OC(CO)C(O)C(O)C2OC2CC(C)(N)C(O)C(C)O2)Oc2ccc(cc2Cl)C1O (stereo not shown) [Vanc-63] | 0.39 µM (≈ 0.708 µg/mL) | 4 | 3.13 µM (≈ 5.68 µg/mL) | 64 | 25 µM (≈ 45.4 µg/mL) | 16 | 6.25 µM (≈ 11.3 µg/mL) | 64 | 12.5 µM (≈ 22.7 µg/mL) | > 250 µM | ≥ 250 µM | 69 ± 74 µM | 190 µM | 0.39 µM (≈ 0.708 µg/mL) | 2 | 0.78 µM (≈ 1.42 µg/mL) | 8 | 0.78 µM (≈ 1.42 µg/mL) | 128 | 2 | MIC (MRSA KS2): 0.39 µM (≈ 0.708 µg/mL); MIC-fold improvement vs. vancomycin (MRSA KS6): 2; MIC (MRSA KS6): 0.39 µM (≈ 0.708 µg/mL); MIC-fold improvement vs. vancomycin (MRSA KS89): 2; MIC (MRSA KS89): 0.39 µM (≈ 0.708 µg/mL); MIC-fold improvement vs. vancomycin (MRSA KS1): 2; MIC (MRSA KS1): 0.39 µM (≈ 0.708 µg/mL)
CN[C@H](CC(C)C)C(=O)N[C@H]1C(=O)N[C@@H](CC(N)=O)C(=O)N[C@H]2C(=O)N[C@H]3C(=O)N[C@H](C(=O)N[C@H](C(=O)NCCNC(=O)/C=C/c4ccc(NS(=O)(=O)c5ccc(Cl)cc5Cl)cc4)c4cc(O)cc(O)c4-c4cc3ccc4O)[C@H](O)c3ccc(c(Cl)c3)Oc3cc2cc(c3O[C@@H]2O[C@H](CO)[C@@H](O)[C@H](O)[C@H]2O[C@H]2C[C@](C)(N)[C@H](O)[C@H](C)O2)Oc2ccc(cc2Cl)[C@H]1O [Vanc-64] | 0.39 µM (≈ 0.72 µg/mL) | 4 | 3.13 µM (≈ 5.78 µg/mL) | 64 | 12.5 µM (≈ 23.1 µg/mL) | 32 | 6.25 µM (≈ 11.5 µg/mL) | 64 | 6.25 µM (≈ 11.5 µg/mL) | > 250 µM | 210 ± 56 µM | 102 ± 39 µM | 187 µM | 0.39 µM (≈ 0.72 µg/mL) | 2 | 0.78 µM (≈ 1.44 µg/mL) | 8 | 0.39 µM (≈ 0.72 µg/mL) | 256 | 4 | MIC-fold improvement vs. vancomycin (E. faecalis VRE 37; VRE 37, ratio of MIC of vancomycin and MIC of analogue): 64; MIC (MRSA KS2): 0.20 µM (≈ 0.369 µg/mL); MIC-fold improvement vs. vancomycin (MRSA KS6): 4; MIC (MRSA KS6): 0.20 µM (≈ 0.369 µg/mL); MIC-fold improvement vs. vancomycin (MRSA KS89): 2; MIC (MRSA KS89): 0.39 µM (≈ 0.72 µg/mL); MIC-fold improvement vs. vancomycin (MRSA KS1): 4; MIC (MRSA KS1): 0.20 µM (≈ 0.369 µg/mL)
